Results reported in US12370198B2, “Pharmaceutical compositions and methods for treating psychiatric disorders” (LA PHARMATECH INC., priority 2022, dated 2025).

How the values were obtained:
REM sleep = conditions: background studies; cited from earlier work
[1] = system: mild chronic depression (MCD); experiment: Clinical case treatment of a patient with mild chronic depression; assay type: in vivo, human; conditions: Example 3
Method: The patient was prescribed with ebastine 30 mg for 3 weeks from the first clinic visit. […] Then they were prescribed with a combination of ebastine (10 mg) and alprazolam (0.5 mg) for a 4-week treatment.

[2] = system: premenstrual dysphoric disorder (PDD); experiment: Clinical case treatment of a patient with premenstrual dysphoric disorder; assay type: in vivo, human
Method: A patient with no insomnia symptom was diagnosed with premenstrual dysphoric disorder (PDD) with symptoms of persistent hopelessness, sadness, anxiety and frequent tearfulness on the first clinic visit and was provided with fluoxetine 40 mg for 3 weeks. […] Then the patient was prescribed with the combination of ebastine (20 mg) and alprazolam (2 mg) for 2 weeks.

[3] = system: major depressive disorder (MDD); experiment: Clinical case treatment of patients with major depressive disorder; assay type: in vivo, human; conditions: for improvement of MDD: alprazolam 5 mg for 2 weeks; for outcome of previous anti-depressant treatment of MDD: Example 2, person; for outcome of previous anti-depressant treatment of MDD / outcome of previous treatments of MDD symptoms: previous treatments; for outcome of previous treatments of MDD symptoms: Example 4, person
Method: A patient having no insomnia symptom was diagnosed with major depressive disorder (MDD) showing persistent sadness, loneliness, helpless, and hapless. […] Then they were prescribed with a combination of ebastine (30 mg) and alprazolam (5 mg) for 4 weeks.
A patient with no insomnia symptom was diagnosed with major depressive disorder (MDD) with persistent sadness, lack of interest, and feeling lonely. […] Then they were treated with a combination of ebastine (30 mg) and alprazolam (0.5 mg) for 4 weeks from the second clinic visits.

[4] = system: generalized anxiety disorder (GAD); experiment: Clinical case treatment of patients with generalized anxiety disorder; assay type: in vivo, human; conditions: for improvement of GAD reported by patient: Example 1, person
Method: A patient was diagnosed with generalized anxiety disorder (GAD) and they had no complaints of having insomnia. […] Then they were treated with the combination of ebastine (20 mg) and alprazolam (1 mg) for 2 weeks. […] The inventors believe the composition of two mechanisms of actions provided a new solution for treating their GAD which could not be treated with alprazolam and the like alone.
A patient with no insomnia symptom order was diagnosed with GAD. The patient was treated with alprazolam (2 mg) for 2 weeks from their first clinic visit and alprazolam (4 mg) for 2 weeks from their second clinic visit. […] On the third clinic visit, the patient was prescribed with the combination of ebastine (10 mg) and alprazolam (4 mg). […] The inventors believe that the two compositions of two mechanisms of actions provided a new solution for treating their […] which could not be treated with other options.

[5] = system: release of prostaglandin D2 (PGD2) and leukotrienes C4/D4 (LTC4/D4); conditions: background statement; cited from earlier work
allergic rhinitis = experiment: Clinical case treatment of allergic rhinitis; assay type: in vivo, human; conditions: Example 3, person; ebastine 30 mg for 3 weeks
Method: A patient with no insomnia symptom was having allergic rhinitis with itchy nose, mouth and eyes, frequent sneezing, watery eyes and coughing, and runny nose when they were diagnosed with mild chronic depression (MCD) but showing symptoms of sadness, lack of interest, loneliness and helpless, consistent frustration for 4 weeks with failed treatment history of allergic rhinitis. The patient was prescribed with ebastine 30 mg for 3 weeks from the first clinic visit. […] But their symptoms from MCD were persistent. […] Then they were prescribed with a combination of ebastine (10 mg) and alprazolam (0.5 mg) for a 4-week treatment.

[6] = system: release of cytokines (GM-CSF, tumour necrosis factor-a, interleukin-8); conditions: background statement; cited from earlier work

## Cc1nnc2n1-c1ccc(Cl)cc1C(c1ccccc1)=NC2 [alprazolam, 8-chloro-1-methyl-6-phenyl-4H-s-triazolo[4,3-a][1,4]benzodiazepine]
REM sleep
  REM latency: increases
  length of REM periods and frequency of REM burst activities: significantly decreases
[1]; alprazolam 1 mg for 3 weeks
  improvement of MCD symptoms: no improvement
[2]; Example 6, alprazolam (2 mg) for 2 weeks
  improvement of PDD symptoms: failed to improve
[3]; Example 2
  improvement of MDD: no improvement
[3]; Example 4
  improvement of MDD: 20%
[4]; alprazolam 0.5 mg for 2 weeks
  improvement of GAD reported by patient: no improvement
[4]; alprazolam 2 mg for 2 weeks
  improvement of GAD reported by patient: no improvement
[4]; Example 5, person, alprazolam (2 mg) for 2 weeks
  improvement of GAD symptoms (anxiety, agitation, sweating, nausea, headaches): failed to improve
[4]; Example 5, alprazolam (4 mg) for 2 weeks
  improvement of GAD symptoms (anxiety, agitation, sweating, nausea, headaches): failed to improve

## CC(NC(C)(C)C)C(=O)c1cccc(Cl)c1 (centres unmarked) [bupropion]
[3]
  outcome of previous anti-depressant treatment of MDD: failed
  outcome of previous treatments of MDD symptoms: failed to improve

## CC(C)(C(=O)O)c1ccc(C(=O)CCCN2CCC(OC(c3ccccc3)c3ccccc3)CC2)cc1 [carebastine]
[5]
  release of PGD2: inhibits

## CNCC[C@H](Oc1cccc2ccccc12)c1cccs1 [duloxetine]
[3]
  outcome of previous anti-depressant treatment of MDD: failed

## CC(C)(C)c1ccc(C(=O)CCCN2CCC(OC(c3ccccc3)c3ccccc3)CC2)cc1 [ebastine, 4-diphenylmethoxy-1-[3-(4-tert-butylbenzoyl)-propyl]piperidine]
[1]; ebastine 30 mg for 3 weeks
  symptoms from MCD: persistent
Allergic rhinitis
  recovery from allergic rhinitis: complete recovery
[6]
  release of cytokines, including GM-CSF, tumour necrosis factor-a and interleukin-8: inhibited
[5]
  anti-IgE-induced release of prostaglandin D2 (PGD2) and leukotrienes C4/D4 (LTC4/D4): significantly inhibits

## CNCCC(Oc1ccc(C(F)(F)F)cc1)c1ccccc1 (centres unmarked) [fluoxetine]
[2]; Example 6, person, fluoxetine 40 mg for 3 weeks
  improvement of PDD symptoms: no improvement
[3]
  outcome of previous treatments of MDD symptoms: failed to improve
